# Measured values taken from patent US20080176781A1, “Perfumes for linear citrus release in rinse-off systems” (priority 2007, published 2008).
# Assay: Odor detection threshold (ODT)
# Design: unit not given here
# Source text: Within these defined water-release groups, odorants are then further described based on their experimentally determined odor detection thresholds (ODT) to further characterize the odor impact or olfactive intensity of a citrus and other olfactive types within the herein-described released group of odorants.
# Upon their release in headspace, odorants are detected based on their odor detection threshold values. Odor detection thresholds are defined as the lowest concentration of odorants in a selected medium (air or water) to be detected. By including odor values of odorants in the model, one can further improve on the values for predicted performance of once odorants are released from the partition into the air.
# Various databases for experimental odor detection threshold values in various partitions such as water and air are available. See Compilation of Odor and Taste Threshold Values Data, American Society for Testing and Materials, F. A. Fazzalari Editor; Booleans Aroma Chemical Information Service (BACIS)).
SMILES,odt (Table 17),odt (Table 15),odt (Table 13)
C=CC(C)(O)CCC=C(C)CC (mixture of isomers) [ETHYL LINALOOL],120,–,–
"CCCCCCCCCC=O [ALDEHYDE C10 (DECANAL), DECANAL]",–,6.7,–
"CCCCCCCC=O [ALDEHYDE C 8 (OCTANAL), OCTANAL]",4.6,4.6,–
C=CCOC(=O)CCC1CCCCC1 [ALLYL CYCLOHEXYL PROPIONATE],–,–,31.00
CC/C=C\CCOC(=O)c1ccccc1O [CIS-3-HEXENYL SALICYLATE],–,–,1.90
CCCCCCCCCCCC#N [LAURONITRILE],–,–,5.70
CCCCCCC#CC(=O)OC [METHYL OCTINE CARBONATE],9.7,–,–
CCCCCCCCCCC=CC#N [TRIDECEN 2 NITRILE],–,6.7,–
"CCC=C(C)C(O)CCCCC (centres unmarked) [UNDECAVERTOL, 4-Methyl-3-decen-5-ol]",26,26,–
